What is called IC50 is the concentration needed to halve the response being measured. A word on the melting point: it is the temperature, or range, at which the solid turns liquid.

The target of one data set is T1, histamine-H1 receptors (Cavia porcellus, UniProt P31389).
T1 construct: performed in guinea pig cerebellum membranes; from tissue; host or cells: guinea pig cerebellum membranes
Nature of the data set: Histamine-H1 receptor binding assay ([3H]-mepyramine, guinea pig cerebellum membranes). To be noted: guinea pig cerebellum membranes, 0.7 nM [3H]-mepyramine; read-out: BINDING TO RECEPTOR H1 ( IC50 nM ). As to the method: (1) Histamine-H1 receptor binding assay
Briefly, the membrane suspensions (160 μg/ml) were incubated at 30° C. with 0.7 nM [^3H]- mepyramine and different concentrations of the test compounds in a final volume of 250 μl. Binding reactions were terminated by filtration after 30 min of incubation and the bound radioactivity was determined. The specific binding was measured in the presence of 10 μM of promethazine. The affinity of each test compound to the receptor was determined by using at least six different concentrations run in duplicate. IC50 values were obtained by non-linear regression by use of SAS on a DEC AXP computer.

Data set [1] concerns histamine-induced skin vascular permeability in rats. Nature of the data set: Histamine-induced skin vascular permeability in rats. The data set is classed as in vivo. Particulars: Rattus norvegicus, po; 3 mg/Kg orally, 4 hours after administration, male Wistar rats; read-out: inhibition of the histamine-induced wheal. As to the method:
(2) Histamine-induced skin vascular permeability in rats
Male Wistar rats (180-210 g) were treated orally with the test compound or vehicle. One, 4, 8 and 24 hours later, the rats were lightly anaesthetized with ether. The cutaneous reaction was induced by two intradermal injections of 50 μl of histamine (100 μg/ml) onto the back, followed by a intravenous injection of 3 ml/kg of Evan's Blue (5 mg/ml), both dissolved in saline. Sixty min later, the rats were killed by cervical dislocation and the back skin dissected free. The diameter (in millimeters) of the wheal was measured in two directions and the area was calculated.

T1 sequence (P31389 whole entry): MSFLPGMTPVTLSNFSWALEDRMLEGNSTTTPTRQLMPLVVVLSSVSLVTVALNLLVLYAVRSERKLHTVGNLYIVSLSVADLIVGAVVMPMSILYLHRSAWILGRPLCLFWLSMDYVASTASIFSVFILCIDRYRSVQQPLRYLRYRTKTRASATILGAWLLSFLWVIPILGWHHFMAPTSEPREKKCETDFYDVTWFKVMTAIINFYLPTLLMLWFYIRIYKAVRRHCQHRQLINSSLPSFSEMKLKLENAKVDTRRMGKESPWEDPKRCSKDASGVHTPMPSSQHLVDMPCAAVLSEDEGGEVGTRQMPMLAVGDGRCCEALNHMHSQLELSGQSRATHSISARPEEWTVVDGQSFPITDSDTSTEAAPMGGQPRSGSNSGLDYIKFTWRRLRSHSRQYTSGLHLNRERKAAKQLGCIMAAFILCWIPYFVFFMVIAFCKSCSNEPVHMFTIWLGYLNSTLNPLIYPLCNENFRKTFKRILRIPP

With `CCCCCn1cc(C2CCN(Cc3ccc(C(=O)O)o3)CC2)c2ccccc21` [Example 41, 5-[4-(1-pentyl-1H-indol-3-yl)-piperidin-1-yl-methyl]-furan-2-carboxylic acid], the melting point was 163 to 165 °C. The half-inhibitory concentration (IC50) at histamine-H1 receptors came to 111 nM. In data set [1], the inhibition in vivo at 3 mg/kg is greater than 50%.
The compound `O=C(O)c1ccccc1OCCN1CCC(c2cn(CC3CC3)c3ccccc23)CC1` [Example 157, 2-{2-[4-(1-cyclopropylmethyl-1H-indol-3-yl)-piperidin-1-yl]-ethoxy}-benzoic acid] had a melting point of 145 to 147 °C. For the same compound, the half-inhibitory concentration (IC50) at histamine-H1 receptors turned out to be 140 nM. Also, the inhibition in vivo at 3 mg/kg in data set [1] is greater than 50%.

These data come from US6683096B2, “Indolylpiperidine derivatives as antihistaminic and antiallergic agents” (Almirall Prodesfarma, S.A., priority 1999, dated 2004).
